The values below come from US20070128217A1 (priority 2003, published 2007).

Test [1] has as its system rabbit serum obtained by immunizing a rabbit with the SARS-CoV strain Frankfurt 1. The test is classed as binding. Also on record: Binding of a rabbit serum to linear peptides / Binding of a rabbit serum to looped peptides / Rabbit serum linear peptides / Rabbit serum looped peptides / Binding of a rabbit serum to linear peptides of protein N of SARS-CoV Urbani (Rabbit serum linear peptides) / Binding of a rabbit serum to looped/cyclic peptides of protein N of SARS-CoV Urbani (Rabbit serum looped peptides): unit not given here.

The test system of test [2] is control sera (pooled serum of ten healthy LUMC hospital workers; commercial negative donor pooled serum from the Dutch bloodbank). The format is binding, human. Also on record: Binding of Control serum LUMC to linear peptides / Binding of Control serum Blood-bank to linear peptides / Binding of Control serum LUMC to looped peptides / Binding of Control Serum Blood-Bank to Looped peptides / Binding of Control serum LUMC to linear peptides of the protein M of SARS-CoV Urbani / Binding of Control serum Blood-bank to linear peptides of the protein M of SARS-CoV Urbani / Binding of Control serum LUMC to looped peptides of the protein M of SARS-CoV Urbani / Binding of Control Serum Blood-Bank to Looped peptides of the protein M of SARS-CoV Urbani: unit not given here.

Test [3] has as its system antibodies in sera from SARS patients (sera 1a, 1b, 2, 6, 37, 62, London, SARS-yellow, SARS-green). The format is binding, human. Also on record: Binding of serum 6 to linear peptides of protein X1 of SARS-CoV Urbani / Binding of serum 37 to linear peptides of protein X1 of SARS-CoV Urbani / Binding of serum 6 to looped/cyclic peptide (PEPSCAN-ELISA) / Binding of serum 37 to looped/cyclic peptide (PEPSCAN-ELISA) / Binding of serum 37 to looped/cyclic peptides of protein X1 of SARS-CoV Urbani / Binding of serum 6 to linear peptides of protein X2 / Binding of serum 37 to linear peptides of protein X2 / Binding of serum 37 to looped/cyclic peptides of protein X2 of SARS-CoV Urbani / Binding of serum 6 to linear peptides of protein M of SARS-CoV Urbani / Binding of serum 37 to linear peptides of protein M of SARS-CoV Urbani / Binding of serum 6 to looped/cyclic peptides of protein M of SARS-CoV Urbani / Binding of serum 37 to looped/cyclic peptides of protein M of SARS-CoV Urbani / Binding of serum 6 to linear peptides of protein X3 of SARS-CoV Urbani / Binding of serum 37 to linear peptides of protein X3 of SARS-CoV Urbani / Binding of serum 37 to looped/cyclic peptides of protein X3 of SARS-CoV Urbani / Binding of serum 6 to linear peptides of protein X4 of SARS-CoV Urbani / Binding of serum 37 to linear peptides of protein X4 of SARS-CoV Urbani / Binding of serum 37 to looped/cyclic peptides of protein X4 of SARS-CoV Urbani / Binding of serum 6 to linear peptides of protein X5 of SARS-CoV Urbani / Binding of serum 37 to linear peptides of protein X5 of SARS-CoV Urbani / Binding of serum 37 to looped/cyclic peptides of protein X5 of SARS-CoV Urbani / Binding of serum 6 to linear peptides of protein N of SARS-CoV Urbani / Binding of serum 37 to linear peptides of protein N of SARS-CoV Urbani / Binding of serum 6 to linear peptide (PEPSCAN-ELISA) / Binding of serum 1a to looped/cyclic peptides of protein N of SARS-CoV Urbani / Binding of serum 1b to looped/cyclic peptides of protein N of SARS-CoV Urbani / Binding of serum 2 to looped/cyclic peptides of protein N of SARS-CoV Urbani / Binding of serum 6 to looped/cyclic peptides of protein N of SARS-CoV Urbani / Binding of serum 37 to looped/cyclic peptides of protein N of SARS-CoV Urbani / Binding of serum 62 to looped/cyclic peptides of protein N of SARS-CoV Urbani / Binding of serum London to looped/cyclic peptides of protein N of SARS-CoV Urbani / Binding of serum SARS-green to looped/cyclic peptides of protein N of SARS-CoV Urbani: unit not given here.

Regarding TATIPLQASLPFGWL, in test [1], the “Binding of a rabbit serum to linear peptides” value is given as 0.1 and the “Binding of a rabbit serum to looped peptides” value is given as 0.6. Besides, in test [2], the “Binding of Control Serum Blood-Bank to Looped peptides” value is on record as 0.8, the “Binding of Control serum Blood-bank to linear peptides” value is on record as 1.0, the “Binding of Control serum LUMC to linear peptides” value was found to be 0.8 and the “Binding of Control serum LUMC to looped peptides” value was 0.8. Moreover, in test [3], the “Binding of serum 1a to linear peptides of protein X1 of SARS-CoV Urbani” value is 0.9, the “Binding of serum 1a to looped/cyclic peptide (PEPSCAN-ELISA)” value stood at 0.7, the “Binding of serum 1b to linear peptides of protein X1 of SARS-CoV Urbani” value stood at 0.8 and the “Binding of serum 1b to looped/cyclic peptide (PEPSCAN-ELISA)” value turned out to be 0.6. In test [3], the “Binding of serum 2 to linear peptides of protein X1 of SARS-CoV Urbani” value was 0.6, the “Binding of serum 2 to looped/cyclic peptide (PEPSCAN-ELISA)” value was 0.5, the “Binding of serum 6 to linear peptides of protein X1 of SARS-CoV Urbani” value is 0.7 and the “Binding of serum 6 to looped/cyclic peptide (PEPSCAN-ELISA)” value amounted to 0.5. Besides, in test [3], the “Binding of serum 37 to linear peptides of protein X1 of SARS-CoV Urbani” value turned out to be 0.7, the “Binding of serum 37 to looped/cyclic peptide (PEPSCAN-ELISA)” value came out at 0.8, the “Binding of serum 62 to linear peptides of protein X1 of SARS-CoV Urbani” value came to 0.7 and the “Binding of serum 62 to looped/cyclic peptide (PEPSCAN-ELISA)” value is listed as 0.8. In addition, in test [3], the “Binding of serum London to linear peptides of protein X1 of SARS-CoV Urbani” value is 0.3, the “Binding of serum London to looped/cyclic peptide (PEPSCAN-ELISA)” value stood at 0.3, the “Binding of serum SARS-green to linear peptides of protein X1 of SARS-CoV Urbani” value is given as 0.5 and the “Binding of serum SARS-green to looped/cyclic peptide (PEPSCAN-ELISA)” value amounted to 0.5. Besides, in test [3], the “Binding of serum SARS-yellow to linear peptides of protein X1 of SARS-CoV Urbani” value was determined as 0.3 and the “Binding of serum SARS-yellow to looped/cyclic peptide (PEPSCAN-ELISA)” value is 0.5.

On to TDTGIENATFFIFNK, for which, in test [1], the “Binding of a rabbit serum to linear peptides” value turned out to be 0.1 and the “Binding of a rabbit serum to looped peptides” value worked out at 0.6. Moreover, in test [2], the “Binding of Control Serum Blood-Bank to Looped peptides” value turned out to be 0.8, the “Binding of Control serum Blood-bank to linear peptides” value stood at 0.6, the “Binding of Control serum LUMC to linear peptides” value came to 0.4 and the “Binding of Control serum LUMC to looped peptides” value was determined as 0.6. Further, in test [3], the “Binding of serum 1a to linear peptides of protein X1 of SARS-CoV Urbani” value turned out to be 0.7, the “Binding of serum 1a to looped/cyclic peptides of protein X1 of SARS-CoV Urbani” value turned out to be 0.5, the “Binding of serum 1b to linear peptides of protein X1 of SARS-CoV Urbani” value is recorded as 0.4 and the “Binding of serum 1b to looped/cyclic peptides of protein X1 of SARS-CoV Urbani” value was determined as 0.5. Besides, in test [3], the “Binding of serum 2 to linear peptides of protein X1 of SARS-CoV Urbani” value is given as 0.5, the “Binding of serum 2 to looped/cyclic peptides of protein X1 of SARS-CoV Urbani” value was found to be 0.5, the “Binding of serum 6 to linear peptides of protein X1 of SARS-CoV Urbani” value is on record as 0.7 and the “Binding of serum 6 to looped/cyclic peptides of protein X1 of SARS-CoV Urbani” value was 0.5. For the same sequence, in test [3], the “Binding of serum 37 to linear peptides of protein X1 of SARS-CoV Urbani” value worked out at 0.6, the “Binding of serum 37 to looped/cyclic peptides of protein X1 of SARS-CoV Urbani” value worked out at 0.7, the “Binding of serum 62 to linear peptides of protein X1 of SARS-CoV Urbani” value is on record as 0.5 and the “Binding of serum 62 to looped/cyclic peptides of protein X1 of SARS-CoV Urbani” value was 0.7. In test [3], the “Binding of serum London to linear peptides of protein X1 of SARS-CoV Urbani” value was found to be 0.3, the “Binding of serum London to looped/cyclic peptides of protein X1 of SARS-CoV Urbani” value was determined as 0.3, the “Binding of serum SARS-green to linear peptides of protein X1 of SARS-CoV Urbani” value is on record as 0.5 and the “Binding of serum SARS-green to looped/cyclic peptides of protein X1 of SARS-CoV Urbani” value is 0.4. Further, in test [3], the “Binding of serum SARS-yellow to linear peptides of protein X1 of SARS-CoV Urbani” value was determined as 0.0 and the “Binding of serum SARS-yellow to looped/cyclic peptides of protein X1 of SARS-CoV Urbani” value is 0.5.

Turning to TFRIAIWNLDVIISS, in test [1], the “Rabbit serum linear peptides” value is reported as 0.3 and the “Rabbit serum looped peptides” value is on record as 0.4. Also, in test [2], the “Binding of Control Serum Blood-Bank to Looped peptides of the protein X3 of SARS-CoV Urbani” value is 0.8, the “Binding of Control serum Blood-bank to linear peptides of the protein X3 of SARS-CoV Urbani” value worked out at 0.8, the “Binding of Control serum LUMC to linear peptides of the protein X3 of SARS-CoV Urbani” value worked out at 0.7 and the “Binding of Control serum LUMC to looped peptides of the protein X3 of SARS-CoV Urbani” value is listed as 0.6. Besides, in test [3], the “Binding of serum 1a to linear peptides of protein X3 of SARS-CoV Urbani” value is given as 0.8, the “Binding of serum 1a to looped/cyclic peptides of protein X3 of SARS-CoV Urbani” value turned out to be 0.7, the “Binding of serum 1b to linear peptides of protein X3 of SARS-CoV Urbani” value was determined as 0.5 and the “Binding of serum 1b to looped/cyclic peptides of protein X3 of SARS-CoV Urbani” value amounted to 0.5. Also, in test [3], the “Binding of serum 2 to linear peptides of protein X3 of SARS-CoV Urbani” value was found to be 0.6, the “Binding of serum 2 to looped/cyclic peptides of protein X3 of SARS-CoV Urbani” value is listed as 0.6, the “Binding of serum 6 to linear peptides of protein X3 of SARS-CoV Urbani” value was determined as 0.5 and the “Binding of serum 6 to looped/cyclic peptides of protein X3 of SARS-CoV Urbani” value amounted to 0.3. Besides, in test [3], the “Binding of serum 37 to linear peptides of protein X3 of SARS-CoV Urbani” value was found to be 0.6, the “Binding of serum 37 to looped/cyclic peptides of protein X3 of SARS-CoV Urbani” value turned out to be 0.6, the “Binding of serum 62 to linear peptides of protein X3 of SARS-CoV Urbani” value was found to be 0.7 and the “Binding of serum 62 to looped/cyclic peptides of protein X3 of SARS-CoV Urbani” value came out at 0.7. Moreover, in test [3], the “Binding of serum London to linear peptides of protein X3 of SARS-CoV Urbani” value stood at 0.7, the “Binding of serum London to looped/cyclic peptides of protein X3 of SARS-CoV Urbani” value is on record as 0.2, the “Binding of serum SARS-green to linear peptides of protein X3 of SARS-CoV Urbani” value was determined as 0.4 and the “Binding of serum SARS-green to looped/cyclic peptides of protein X3 of SARS-CoV Urbani” value is reported as 0.2. In test [3], the “Binding of serum SARS-yellow to linear peptides of protein X3 of SARS-CoV Urbani” value was determined as 0.6 and the “Binding of serum SARS-yellow to looped/cyclic peptides of protein X3 of SARS-CoV Urbani” value turned out to be 0.5.

Regarding THFAFACADGTRHTY, in test [1], the “Rabbit serum linear peptides” value was 0.4 and the “Rabbit serum looped peptides” value stood at 0.5. Moreover, in test [2], the “Binding of Control Serum Blood-Bank to Looped peptides” value is reported as 0.7, the “Binding of Control serum Blood-bank to linear peptides” value is given as 0.7, the “Binding of Control serum LUMC to linear peptides” value is given as 0.7 and the “Binding of Control serum LUMC to looped peptides” value came to 0.7. In addition, in test [3], the “Binding of serum 1a to linear peptides of protein X4 of SARS-CoV Urbani” value was 0.7, the “Binding of serum 1a to looped/cyclic peptides of protein X4 of SARS-CoV Urbani” value was 0.7, the “Binding of serum 1b to linear peptides of protein X4 of SARS-CoV Urbani” value is 0.5 and the “Binding of serum 1b to looped/cyclic peptides of protein X4 of SARS-CoV Urbani” value worked out at 0.5. In test [3], the “Binding of serum 2 to linear peptides of protein X4 of SARS-CoV Urbani” value is given as 0.5, the “Binding of serum 2 to looped/cyclic peptides of protein X4 of SARS-CoV Urbani” value is recorded as 0.5, the “Binding of serum 6 to linear peptides of protein X4 of SARS-CoV Urbani” value came to 0.6 and the “Binding of serum 6 to looped/cyclic peptides of protein X4 of SARS-CoV Urbani” value stood at 0.5. Moreover, in test [3], the “Binding of serum 37 to linear peptides of protein X4 of SARS-CoV Urbani” value is 0.6, the “Binding of serum 37 to looped/cyclic peptides of protein X4 of SARS-CoV Urbani” value came to 0.6, the “Binding of serum 62 to linear peptides of protein X4 of SARS-CoV Urbani” value is 0.7 and the “Binding of serum 62 to looped/cyclic peptides of protein X4 of SARS-CoV Urbani” value is reported as 0.6. Further, in test [3], the “Binding of serum London to linear peptides of protein X4 of SARS-CoV Urbani” value turned out to be 0.7, the “Binding of serum London to looped/cyclic peptides of protein X4 of SARS-CoV Urbani” value worked out at 0.3, the “Binding of serum SARS-green to linear peptides of protein X4 of SARS-CoV Urbani” value amounted to 0.5 and the “Binding of serum SARS-green to looped/cyclic peptides of protein X4 of SARS-CoV Urbani” value amounted to 0.4. In test [3], the “Binding of serum SARS-yellow to linear peptides of protein X4 of SARS-CoV Urbani” value was 0.2 and the “Binding of serum SARS-yellow to looped/cyclic peptides of protein X4 of SARS-CoV Urbani” value came out at 0.5.
